According to publication PMC10182601, “Biological evaluation of novel gemcitabine analog in patient-derived xenograft models of pancreatic cancer” (BMC Cancer, 2023):
Counter-ions that a name gives are not always drawn.

How the values were obtained:
PPCL-192 cells = test: Cell cycle distribution (PI, flow cytometry), PPCL-192; assay type: cell-based, human; conditions: 24 h
Procedure: (§1) Cell cycle study was performed to determine the effect of 4NSG-SLN on the cell cycle; PPCL-192 and PPCL-46 cells (2 × 10^5 cells per well) were seeded in 6-well plates and cultured using DMEM medium supplemented with 10% FBS10 mM HEPES, 10% FBS, and 1% penicillin/streptomycin were seeded in 6-well plates and incubated at 37 °C. After the cells reached 75% confluence, they were exposed to different concentrations (5 μM,10 μM, and 20 µM) of GemHCl and 4NSG-SLN. After 24 h exposure, cells were harvested, washed with PBS, centrifuged at 300 × g for 5 min, resuspended the pellets in 100 μL of PBS, and passed through a 28 5/8 needle to disperse them into single cells. Fixation and permeation of cells were performed using cold 70% ethanol while vortexing. Cells were then stored at − 20 °C overnight. The cells were resuspended in 0.1 mg/mL RNase, stained with […] PI, and the phase distribution was examined using flow cytometry (FACScalibur-Becton Dickinson).

PPCL-46 cells [1] = test: Cell cycle distribution (PI, flow cytometry), PPCL-46; assay type: cell-based, human; conditions: 24 h
Procedure: as §1

PPCL-46 cells [2] = test: Cell migration (wound) assay, PPCL-46; assay type: cell-based, human; conditions: PPCL-46, 5 µM, 48 h
Procedure: A cell migration assay was conducted to determine the effect of 4NSG-SLN on PPCL-192 and PPCL-46 cell motility. The Ibidi cell culture inserts were used to grow the cells into two confluent monolayers separated by a "wound" for this assay. The cells were seeded into 24-well plates at a cell density of 2.5 × 10^5, 48 h at 37 °C. At 75% confluency, cells formed adherent monolayers on either side of the tissue culture insert. Before treatment, the cells were serum-starved by replacing complete media with base media (DMEM) and then further incubated for 48 h. After serum starvation, the inserts were gently removed to generate a gap or "wound" between the two confluent layers of cells, and the monolayers were washed with experimental media. Afterward, cells were exposed to 5 μM concentration of GemHCl and 4NSG-SLN treatments. Images of the cells invading the wound were then captured after 48 h with a Nikon Ti Eclipse microscope.

[3] = test system: PCa PDX tumor from White patients; test: Tumor efficacy in PDX mice bearing tumors from White PCa patients; assay type: in vivo; conditions: 30 mg/kg Gem equivalent i.v. twice weekly for 3 weeks
From the text: The implantation of surgical tumor tissue into immuno-compromised mice was described previously. A viable portion of resected tissue 2 × 2 mm in size was briefly isolated immediately from surgically resected primary PCa specimens (from Blacks and White patients) with care to minimize critical ischemia time. The PCa tissues were then implanted subcutaneously into an 8-week-old mouse (The Jackson Laboratory, Bar Harbor, ME). The xenografts were allowed to grow to a maximum diameter of 1.5 cm before passage and in vitro culture.
Mice-bearing surgically implanted tumors obtained from Black and White patients with sizes of 70–100 mm^3 were randomized into groups as control, GemHCl, and 4NSG-SLN (n = 5/group). Baseline tumor volume was established, and dosing initiation began on day 1 with intravenous administration of 30 mg/kg Gem (twice weekly for 3 weeks) with an equivalent dose of GemHCl and 4NSG-SLN [42]. Once tumors became palpable, their volume was measured thrice per week, and the mice's weight was recorded twice weekly. Tumor volumes were measured using digital calipers and calculated using the following equation: V = (L*(W)^2)/2, where V is the volume (mm^3), W(width) is the smaller of two perpendicular tumor axes, and the L (length) is the larger of two vertical axes. Mean tumor volume growth curves were calculated for each treatment group.

EGFR = test: Immunohistochemistry of PDX tumor tissue, EGFR; assay type: in vivo, mice; conditions: for EGFR % Moderate Positive Cells / EGFR % Positive / EGFR % Strong Positive Cells / EGFR % Weak Positive Cells / EGFR %Negative Cells / EGFR H Score: IHC
Procedure: [The source words this procedure for another target and reports this target under the same test.] Tissue samples from mice bearing tumors from Black and White PCa patients post treatments with GemHCl and 4NSG-SLN were excised and immediately washed with PBS, fixed (10% buffered formalin) for 24 h, and transferred to 70% ethanol for histopathological analysis. Histology was performed by HistoWiz Inc. (Histowiz.com) according to manufacturer protocol. Samples were embedded in paraffin, and 4 μm sections were prepared. Immunohistochemistry was performed on a Bond Rx autostainer (Leica Biosystems) with enzyme treatment (1:1000) using standard protocols (https://home.histowiz.com/faq/). Samples were incubated overnight with primary antibodies (Antibodies used were rat monoclonal F4/80 primary antibody (eBioscience, 14–4801, and 1:200), and immunohistochemical staining was done using rabbit anti-rat secondary (Vector Labs, 1:100). Bond Polymer Refine Detection was used per the manufacturer's protocol (Leica Biosystems). After staining, sections were dehydrated and filmed, coverslipped using a Tissue-Tek Prisma coverslip (Sakura). Whole slide scanning (40x) was performed on an Aperio AT2 (Leica Biosystems).

HER2 = test: Immunohistochemistry of PDX tumor tissue, HER2; assay type: in vivo, mice
[4] = BT PDX tumor tissue after treatment
[5] = BT and WT PDX tumor tissues, 40X
[6] = WT PDX tumor tissue after treatment
[7] = BT PDX tumor tissue after treatment, IHC
[8] = WT PDX tumor tissue after treatment, IHC

## Nc1ccn([C@@H]2O[C@H](CO)[C@@H](O)C2(F)F)c(=O)n1 [GemHCl, Gemcitabine hydrochloride]
PPCL-192 cells; PPCL-192, 5 μM
  %G1: 71.08%
  %G2: 11.05%
  %S: 17.87%
PPCL-192 cells; PPCL-192, 10 μM
  %G1: 74.75%
  %G2: 9.59%
  %S: 15.66%
PPCL-192 cells; PPCL-192, 20 μM
  %G1: 79.91%
  %G2: 8.23%
  %S: 11.86%
PPCL-46 cells [1]; PPCL-46, 5 μM
  %G1: 72.75%
  %G2: 12.56%
  %S: 14.69%
PPCL-46 cells [1]; PPCL-46, 10 μM
  %G1: 74.08%
  %G2: 10.39%
  %S: 15.53%
PPCL-46 cells [1]; PPCL-46, 20 μM
  %G1: 76.35%
  %G2: 9.54%
  %S: 14.11%
PPCL-46 cells [2]
  Number of cells migrated: 120 ± 3.8
[3]; day 0, WT (patient tumor) PDX mice
  Mean terminal tumor volume: 0 mm^3
[3]; day 1, WT PDX mice
  Mean terminal tumor volume: 13.9 ± 2 mm^3
[3]; day 3, WT PDX mice
  Mean terminal tumor volume: 27.8 ± 4 mm^3
[3]; day 5, WT PDX mice
  Mean terminal tumor volume: 39.7 ± 5 mm^3
[3]; day 7, WT PDX mice
  Mean terminal tumor volume: 43.5 ± 16 mm^3
[3]; day 9, WT PDX mice
  Mean terminal tumor volume: 177.8 ± 60 mm^3
[3]; day 11, WT PDX mice
  Mean terminal tumor volume: 583.2 ± 227 mm^3
[3]; day 13, WT PDX mice
  Mean terminal tumor volume: 646.9 ± 240 mm^3
[3]; day 15, WT PDX mice
  Mean terminal tumor volume: 752.6 ± 241 mm^3
[3]; day 17, WT PDX mice
  Mean terminal tumor volume: 850.8 ± 205 mm^3
[3]; day 19, WT PDX mice
  Mean terminal tumor volume: 868.2 ± 294 mm^3
[3]; day 21, WT PDX mice
  Mean terminal tumor volume: 1053 ± 86 mm^3
[3]; day 23, WT PDX mice
  Mean terminal tumor volume: 1344.7 ± 171 mm^3
[3]; day 25, WT PDX mice
  Mean terminal tumor volume: 1748.2 ± 223 mm^3
EGFR; [4]
  EGFR % Moderate Positive Cells: 0.6 ± 0.2%
  EGFR % Positive: 25 ± 4.5%
  EGFR % Strong Positive Cells: 0.5 ± 0.1%
  EGFR % Weak Positive Cells: 1.4 ± 0.1%
  EGFR %Negative Cells: 72.5 ± 1.5%
  EGFR H Score: 3.0
EGFR; [5]
  EGFR expression in representative IHC images: moderate to high
EGFR; [6]
  EGFR % Moderate Positive Cells: 3.1 ± 2.1%
  EGFR % Positive: 20 ± 10%
  EGFR % Strong Positive Cells: 2.3 ± 1.5%
  EGFR % Weak Positive Cells: 2.7 ± 0.7%
  EGFR %Negative Cells: 71.9 ± 1.6%
  EGFR H Score: 22.1
HER2; [7]
  HER2 % Moderate Positive Cells: 7.2 ± 4.3%
  HER2 % Positive: 17.2 ± 1.0%
  HER2 % Strong Positive Cells: 3.7 ± 0.8%
  HER2 % Weak Positive Cells: 9.3 ± 1.4%
  HER2 %Negative Cells: 62.6 ± 3.4%
  HER2 H Score: 31.8
HER2; [5]
  HER2 expression in representative IHC images: moderate to high
HER2; [8]
  HER2 % Positive: 19.9 ± 1.5%
  HER2 % Strong Positive Cells: 3.6 ± 1.2%
  HER2 % Weak Positive Cells: 8.9 ± 0.8%
  HER2 %Negative Cells: 57.4 ± 7.3%
  HER2 H Score: 30.9
